The source of these data is article PMC10607366 (International Journal of Molecular Sciences, 2023).

pEC50: −log10 of the molar value. Counter-ions that a name gives are not always drawn.

Series [1] has as its system H1N1 A/Netherlands/602/2009 (N09). The conditions noted are these: 10 µM.
For series [2] the test system is unchanged. Put plainly: microbe, parasite or virus in culture. The series is classed as cell-based, Influenza A virus. The conditions noted are these: for Inhibition (%): 10 µM; for inhibition at 10 µM: Influenza A virus, H1N1, A549, 48 h.
The next series deals with influenza virus. The conditions noted are these: cited from earlier work.
The subject of series [3] is H1N1 A/Netherlands/602/2009 (N09). Description: microbe, parasite or virus in culture. The series is classed as cell-based. The settings on record: Influenza A virus, H1N1, MDCK, read-out: EC50 (95% CI).
Another series is described as follows: in vitro. The conditions noted are these: dog.
Series [4] concerns H1N1 A/Netherlands/602/2009 (N09). Put plainly: microbe, parasite or virus in culture. The settings on record: Influenza A virus, H1N1, A549, 48 h.
Series [5] has the same test system. The series is classed as cell-based, Influenza A virus.
Series [6] deals with clinical influenza A strain (H1N1). In kind it is cell-based, Influenza A virus.
For series [7], the system named is H1N1 A/Netherlands/602/2009 (N09). In kind it is cell-based, Influenza A virus. The source holds these as a separate data set.
Series [8] shares this test system. In kind it is cell-based, Influenza A virus. This is another data set of the same source.

In the case of `CCN(CCCc1ccccc1)CCCc1ccccc1.O=C(O)CC(O)(CC(=O)O)C(=O)O` [Alverine citrate salt], the “Viability (%)” value in series [1] was found to be 145%. Moreover, the “Inhibition (%)” value in [2] turned out to be 99%.
For the molecule `C=C[C@@](C)(/C=C/c1ccc(O)cc1)CCC=C(C)C` [Bakuchiol], in the series on influenza virus, the “Reported inhibition of influenza virus” value is recorded as “inhibit influenza virus”. Further, in [3], the negative-log EC50 (pEC50) (usually the negative decadic logarithm of the EC50, by convention in mol/L) is 6.03. The CC50 at 24 h in “in vitro” was 46.2 µM.
On to `CCN(CC)CCNC(C(=O)OCCC(C)C)c1ccccc1.Cl.Cl` (stereo not drawn) [Camylofine chlorhydrate], for which the “Viability (%)” value in series [1] is reported as 97%. Also, the “Inhibition (%)” value in [2] turned out to be 97%.
Consider `COc1ccc2c(c1)[C@]13CCCC[C@@H]1[C@H](C2)N(C)CC3` [Dextromethorphan hydrobromide monohydrate], for which, in [4], the viability (usually a read-out of living cells in per cent, often relative to untreated cells) at 10 µM came to 103%. For the same molecule, the inhibition (commonly the drop in the measured response relative to a control, in per cent) at 10 µM in [2] was 100%.
For the molecule `C/C=C(/C(=C/C)c1ccc(O)cc1)c1ccc(O)cc1` [Dienestrol], the pEC50 in [3] was 5.50. The CC50 in “in vitro” was found to be 32.6 µM.
With `CC/C(=C(/CC)c1ccc(O)cc1)c1ccc(O)cc1` [Diethylstilbestrol], in series [5], the “Attachment of the virus” value was “not inhibited”. Moreover, the viability at 10 µM in series [4] came to 72%. Also, the inhibition at 10 µM in [2] is 114%. The “Reduction of viral load” value in [6] is given as “more than one log”. In addition, the “Inhibition of SARS-CoV-2” value in the series on SARS-CoV-2 B.1.1.7 is on record as “did not inhibit”. For the same molecule, in [7], the “Inhibition, pre-treatment” value is reported as “good inhibition” and the “Potency when added post-infection” value was “potency of the compound was lost”. Also, the “Viral RNA replication” value in series [8] was “inhibited”. The molecule also displayed a CC50 in “in vitro” of 9.81 µM. The “Toxicity in Mucilair tissues” value in the series on MucilAir tissues was “absence of toxicity”.
Turning to `CC[C@H](c1ccc(O)cc1)[C@@H](CC)c1ccc(O)cc1` [Hexestrol], the pEC50 in [3] was 6.85. Besides, in “in vitro”, the CC50 was determined as 46.9 µM.
For `C[C@H](Cc1ccc(O)c(O)c1)[C@@H](C)Cc1ccc(O)c(O)c1` [Masoprocol], in that order: less than 5.00 and 84.9 µM.
As for `OC(CCN1CCCC1)(c1ccccc1)C1CCCCC1` (stereo not drawn) [Procyclidine hydrochloride], the viability at 10 µM in [4] amounted to 91%. Moreover, the inhibition at 10 µM in [2] was 97%.
As for `Oc1ccc(/C=C/c2cc(O)cc(O)c2)cc1` [Resveratrol], the “Reported inhibition of influenza” value with influenza virus is given as “inhibit influenza”. The pEC50 in series [3] was less than 5.00. Besides, the CC50 in “in vitro” was found to be 52 µM.
